Drawing on paper PMC8921834, “Septins tune lipid kinase activity and PI(4,5)P2 turnover during G-protein–coupled PLC signalling in vivo” (Life Science Alliance, 2022), this text covers response ratio for one compound.

This assay concerns the target T1, dPIP5K^L (Drosophila melanogaster, UniProt A0A6M3Q9L5).
T1 construct: gene PIP5K59B; full-length long isoform, 897 residues, about 100 kD; cDNA from fly retinae in pUAST-attB, transiently expressed in Drosophila S2R+ cells; lysate assayed
The assay can be described thus: in vitro lipid kinase assay, LC-MS/MS of product:substrate ratio. Particulars: S2R+ lysate 10 μg; 600 pmol PI4P with phosphatidylserine micelles; ATP (40 μM in 2x buffer), pH 7.4, 30 °C, 30 min. Format: biochemical.

T1 sequence (A0A6M3Q9L5 1-891): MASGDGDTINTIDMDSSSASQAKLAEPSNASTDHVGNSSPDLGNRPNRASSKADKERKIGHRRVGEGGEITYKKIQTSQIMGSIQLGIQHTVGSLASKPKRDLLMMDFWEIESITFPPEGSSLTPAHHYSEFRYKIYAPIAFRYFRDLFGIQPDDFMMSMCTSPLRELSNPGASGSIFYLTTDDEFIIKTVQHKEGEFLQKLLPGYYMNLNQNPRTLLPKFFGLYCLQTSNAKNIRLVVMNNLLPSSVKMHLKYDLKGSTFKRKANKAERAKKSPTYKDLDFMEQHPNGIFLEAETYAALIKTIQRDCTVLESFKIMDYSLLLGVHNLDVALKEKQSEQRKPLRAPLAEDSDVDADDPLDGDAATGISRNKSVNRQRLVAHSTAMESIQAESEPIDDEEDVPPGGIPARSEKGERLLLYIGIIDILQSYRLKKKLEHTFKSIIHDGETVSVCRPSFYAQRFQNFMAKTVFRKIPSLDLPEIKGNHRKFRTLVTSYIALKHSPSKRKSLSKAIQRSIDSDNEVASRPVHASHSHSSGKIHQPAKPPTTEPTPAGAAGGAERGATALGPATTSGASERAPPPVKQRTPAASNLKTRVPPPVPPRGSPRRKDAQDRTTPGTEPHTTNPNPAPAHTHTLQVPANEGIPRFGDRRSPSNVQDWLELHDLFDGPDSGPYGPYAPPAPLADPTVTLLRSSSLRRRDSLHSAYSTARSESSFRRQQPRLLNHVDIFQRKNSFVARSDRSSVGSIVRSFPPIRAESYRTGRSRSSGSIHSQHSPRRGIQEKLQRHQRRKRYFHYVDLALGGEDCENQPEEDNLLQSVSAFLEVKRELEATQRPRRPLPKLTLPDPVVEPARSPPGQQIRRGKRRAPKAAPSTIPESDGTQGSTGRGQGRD

Turning to `CCCCC/C=C\C/C=C\C/C=C\C/C=C\CCCC(=O)O[C@H](COC(=O)CCCCCCCCCCCCCCCC)COP(=O)(O)O[C@H]1[C@H](O)[C@@H](O)[C@H](OP(=O)(O)O)[C@@H](O)[C@H]1O` [37:4 PI4P], the response ratio entry is “response ratio of dPIP5K^L transfected lysates was significantly higher”.
